Measured values reported in patent publication US20100075960A1 (priority 2006, published 2010).

Columns and labels:
HCT116 = assay: Inhibition of cell proliferation, HCT116; assay type: cell-based; details: Homo sapiens, HCT-116; 72 h treatment; methylene blue or CellTiter-Glo
A549-L = assay: Inhibition of cell proliferation, A549-L; assay type: cell-based; details: lung; 72 h; methylene blue or CellTiter-Glo
Experimental: (§1) II. Inhibition of Cell Proliferation by PLK1 Inhibitors.
(§2) Exponentially growing cell lines of different tumor origins, cultured in appropriate media containing 10% fetal bovine serum at 37° C. in a 5% CO2 incubator were plated in 96 or 384-well plates. Twenty four hours post-plating, cells were treated with different concentrations of test compounds ranging from 20 μM to 0.04 nM. Several wells were left untreated as a control. Seventy two hours post-treatment, cell numbers were determined using different techniques; 100 μl per well of methylene blue (Sigma M9140) (0.5% in 50:50 Ethanol:water), or 10-100 μl per well of CellTiter-Glo (Promega #G7573), depending on well size. For methylene blue staining, stain was incubated at room temperature for 30 minutes before plates were rinsed and dye solubilized in 1% N-lauroyl sarcosine, sodium salt, (Sigma L5125, in PBS). Plates were read on a microplate reader, measuring the OD at 620 nm. For CellTiter-Glo, plates were incubated at room temperature for 15 minutes and the chemiluminescent signal was read on the Victor V or Envison 2100 reader.
(§3) Percent inhibition of cell growth was expressed as percent proliferation relative to 100% proliferation (control). Concentration of test compound that inhibited 50% of cell growth (IC50) was determined by 4 parameter fit of data using XLfit, (value of no cell control was substracted from all samples for background). The data are shown in Table 1 and Table 2 below and represent a compilation of several different experiments each performed using the general parameters outlined above, although minor variations may have been employed in some instances, in Table 1 and Table 2, +=IC50>1 μM; ++=IC50 0.5-1 μM: +++=IC50<0.5 μM.

COLO205 = assay: Inhibition of cell proliferation, COLO205; assay type: cell-based; details: Homo sapiens, COLO 205; Colon; 72 h; methylene blue or CellTiter-Glo
Experimental: as §1, §2, §3

HT29 = assay: Inhibition of cell proliferation, HT29; assay type: cell-based; details: Homo sapiens, HT-29; Colon; 72 h; methylene blue or CellTiter-Glo
Experimental: as §1, §2, §3

MX-1 = assay: Inhibition of cell proliferation, MX-1; assay type: cell-based; details: Homo sapiens, MX1; Breast; 72 h; methylene blue or CellTiter-Glo
Experimental: as §1, §2, §3

SKOV-3 = assay: Inhibition of cell proliferation, SKOV-3; assay type: cell-based; details: Homo sapiens, SK-OV-3; Ovarian; 72 h; methylene blue or CellTiter-Glo
Experimental: as §1, §2, §3

P388 = assay: Inhibition of cell proliferation, P388; assay type: cell-based; details: Mouse leukemia, 72 h, methylene blue or CellTiter-Glo
Experimental: as §1, §2, §3

PLK1 kinase domain = target: T1, PLK1 kinase domain (Homo sapiens, UniProt P53350); assay: Assay for inhibition of PLK1 (33P SPA kinase assay); assay type: biochemical; details: 2 nM PLK1 kinase domain, 1 μM ATP, 1 μM substrate peptide; read-out: PLK1 pIC50 (converted)
T1 construct: His-tagged PLK kinase domain (amino acids 21-346 preceded by MKKGHHHHHHD); made in house; host or cells: baculovirus-infected T. ni insect cells
T1 sequence (P53350 21-346): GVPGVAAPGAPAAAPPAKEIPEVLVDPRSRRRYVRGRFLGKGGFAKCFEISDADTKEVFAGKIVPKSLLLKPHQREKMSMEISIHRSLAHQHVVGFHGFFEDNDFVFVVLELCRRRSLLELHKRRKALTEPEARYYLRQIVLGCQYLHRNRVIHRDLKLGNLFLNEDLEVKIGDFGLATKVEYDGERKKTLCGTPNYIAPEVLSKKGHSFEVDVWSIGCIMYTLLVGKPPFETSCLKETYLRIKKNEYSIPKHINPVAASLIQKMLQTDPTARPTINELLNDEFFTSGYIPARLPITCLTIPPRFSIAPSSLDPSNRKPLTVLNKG
Experimental: I. Assay for Inhibition of PLK1
A. Preparation of 6× N-Terminal His-Tagged PLK Kinase Domain
6× N-terminal His-tagged PLK kinase domain (amino acids 21-346 preceded by MKKGHHHHHHD) SEQ ID: No. 1. was prepared from baculovirus infected T. ni cells under polyhedrin promoter control. All procedures were performed at 4° C. Cells were lysed in 50 mM HEPES, 200 mM NaCl, 50 mM imidazole, 5% glycerol; pH 7.5. The homogenate was centrifuged at 14K rpm in a SLA-1500 rotor for 1 br and the supernatant filtered through a 1.2 micron filter. The supernatant was loaded onto a Nickel chelating Sepharose (Amersham Pharmacia) column and washed with lysis buffer. Protein was eluted using 20%, 30% and 100% buffer B steps where buffer B was 50 mM HEPES, 200 mM NaCl, 300 mM imidazole, 5% glycerol; pH 7.5. Fractions containing PLK were determined by SOS-PAGE. Fractions containing PLK were diluted five-fold with 50 mM HEPES, 1 mM DTT, 5% glycerol; pH 7.5, then loaded on an SP Sepharose (Amersham Pharmacia) column. After washing the column with 50 mM HEPES, 1 mM DTT, 5% glycerol; pH 7.5, PLK was step eluted with 50 mM HEPES, 1 mM DTT, 500 mM NaCl; 5% glycerol; pH 7.5. PLK was concentrated using a 10 kDa molecular weight cutoff membrane and then loaded onto a Superdex 200 gel filtration (Amersham Pharmacia) column equilibrated in 25 mM HEPES, 1 mM DTT, 500 mM NaCl, 5% glycerol; pH 7.5. Fractions containing PLK were determined by SDS-PAGE. PLK was pooled, aliquoted and stored at −80° C. Samples were quality controlled using mass spectrometry, N-terminal sequencing and amino acid analysis.
B. Enzyme Activity ± Inhibitors was Determined as Follows:
All measurements were obtained under conditions where signal production increased linearly with time and enzyme. Test compounds were added to white 384-well assay plates (0.1 μL for 10 μL and some 20 μL assays, 1 μL for some 20 μL assays) at variable known concentrations in 100% DMSO. DMSO (1-5% final, as appropriate) and EDTA (65 mM in reaction) as controls. Reaction Mix was prepared as follows at 22° C.: • 25 mM HEPES, pH 7.2 • 15 mM MgCl2 • 1 μM ATP • 0.05 μCi/well ^33P-γ ATP (10 Ci/mMol) • 1 μM substrate peptide (Biotin-Ahx-SFNDTLDFD) SEQ ID:No. 2. • 0.15 mg/mL BSA • 1 mM DTT • 2 nM PLK1 kinase domain (added last)
Reaction Mix (10 or 20 μL) was quickly added to each well immediately following addition of enzyme via automated liquid handlers and incubated 1-1.5 h at 22° C. […] Plates were sealed with dear plastic seals, spun at 500×g for 1 min or settled overnight, and counted in Packard TopCount for 30 seconds/well (regular SPA) or imaged using a Viewlux imager (LeadSeeker SPA). […]

LNCaP = assay: Inhibition of cell proliferation, LNCaP; assay type: cell-based; details: Homo sapiens, Prostate, 72 h, methylene blue or CellTiter-Glo
Experimental: as §1, §2
(§4) Percent inhibition of cell growth was expressed as percent proliferation relative to 100% proliferation (control). […]

H1299 = assay: Inhibition of cell proliferation, H1299; assay type: cell-based; details: Homo sapiens, NCI-H1299; Lung; 72 h; methylene blue or CellTiter-Glo
Experimental: as §1, §2, §4

Hela = assay: Inhibition of cell proliferation, Hela; assay type: cell-based; details: Homo sapiens, Cervical, 72 h, methylene blue or CellTiter-Glo
Experimental: as §1, §2, §4

HN5 = assay: Inhibition of cell proliferation, HN5; assay type: cell-based; details: Homo sapiens; Head and neck; Table 2 first HN5 line; 72 h
Experimental: as §1, §2, §3

MCF7 = assay: Inhibition of cell proliferation, MCF7; assay type: cell-based; details: Homo sapiens, Breast, 72 h, methylene blue or CellTiter-Glo
Experimental: as §1, §2, §4

MDA-MB-468 = assay: Inhibition of cell proliferation, MDA-MB-468; assay type: cell-based; details: Homo sapiens, Breast, 72 h, methylene blue or CellTiter-Glo
Experimental: as §1, §2, §4

RPMI 8226 = assay: Inhibition of cell proliferation, RPMI 8226; assay type: cell-based; details: Homo sapiens, leukemia, 72 h, methylene blue or CellTiter-Glo
Experimental: as §1, §2, §4

## C[C@@H](Oc1cc(-n2cnc3cc(-c4cnn(C)c4)ccc32)sc1C(N)=O)c1cccc(OCC2CCN(C)CC2)c1Cl [Example 45, 3-{[(1R)-1-(2-Chloro-3-{[(1-methyl-4-piperidinyl)methyl]oxy}phenyl)ethyl]oxy}-5-[5-(1-methyl-1H-pyrazol-4-yl)-1H-benzimidazol-1-yl]-2-thiophenecarboxamide]
HCT116
  IC50: < 500 nM
A549-L
  IC50: < 500 nM
COLO205
  IC50: < 500 nM
HT29
  IC50: < 500 nM
MX-1
  IC50: < 500 nM
SKOV-3
  IC50: < 500 nM
P388
  IC50: < 500 nM

## C[C@@H](Oc1cc(-n2cnc3ccc(CS(C)(=O)=O)cc32)sc1C(N)=O)c1cccc(OC[C@H]2CCCN2C)c1Cl [Example 58, 3-({(1R)-1-[2-chloro-3-({[(2R)-1-methyl-2-pyrrolidinyl]methyl}oxy)phenyl]ethyl}oxy)-5-{6-[(methylsulfonyl)methyl]-1H-benzimidazol-1-yl}-2-thiophenecarboxamide]
PLK1 kinase domain
  IC50: < 100 nM
HCT116
  IC50: > 1000 nM

## C[C@@H](Oc1cc(-n2cnc3ccc(S(C)(=O)=O)cc32)sc1C(N)=O)c1cccc(OC2CCNCC2)c1Cl [Example 60, 3-({(1R)-1-[2-chloro-3-(4-piperidinyloxy)phenyl]ethyl}oxy)-5-[6-(methylsulfonyl)-1H-benzimidazol-1-yl]-2-thiophenecarboxamide]
PLK1 kinase domain
  IC50: < 100 nM
HCT116
  IC50: > 1000 nM

## C[C@@H](Oc1cc(-n2cnc3cc(S(C)(=O)=O)ccc32)sc1C(N)=O)c1cccc(OC2CCNCC2)c1Cl [Example 59, 3-({(1R)-1-[2-chloro-3-(4-piperidinyloxy)phenyl]ethyl}oxy)-5-[5-(methylsulfonyl)-1H-benzimidazol-1-yl]-2-thiophenecarboxamide]
PLK1 kinase domain
  IC50: < 100 nM
HCT116
  IC50: > 1000 nM

## C[C@@H](Oc1cc(-n2cnc3cc(-c4cnn(C)c4)ccc32)sc1C(N)=O)c1cccc(OC2CCNCC2)c1Cl [Example 47, 3-({(1R)-1-[2-Chloro-3-(4-piperidinyloxy)phenyl]ethyl}oxy)-5-[5-(1-methyl-1H-pyrazol-4-yl)-1H-benzimidazol-1-yl]-2-thiophenecarboxamide]
HCT116
  IC50: < 500 nM
A549-L
  IC50: < 500 nM
COLO205
  IC50: < 500 nM
HT29
  IC50: < 500 nM
MX-1
  IC50: < 500 nM
SKOV-3
  IC50: < 500 nM
P388
  IC50: < 500 nM

## C[C@@H](Oc1cc(-n2cnc3cc(-c4cnn(C)c4)ccc32)sc1C(N)=O)c1cccc(OC2CCN(CCS(C)(=O)=O)CC2)c1Cl [Example 31, 3-({(1R)-1-[2-Chloro-3-({1-[2-(methylsulfonyl)ethyl]-4-piperidinyl}oxy)phenyl]ethyl}oxy)-5-[5-(1-methyl-1H-pyrazol-4-yl)-1H-benzimidazol-1-yl]-2-thiophenecarboxamide]
HCT116
  IC50: < 500 nM
COLO205
  IC50: < 500 nM
HT29
  IC50: < 500 nM
MX-1
  IC50: < 500 nM
SKOV-3
  IC50: < 500 nM
LNCaP
  IC50: 500 to 1000 nM
H1299
  IC50: < 500 nM
Hela
  IC50: < 500 nM
HN5
  IC50: < 500 nM
MCF7
  IC50: < 500 nM
MDA-MB-468
  IC50: < 500 nM
RPMI 8226
  IC50: < 500 nM

## CC(Oc1cc(-n2cnc3cc(-c4cnn(C)c4)ccc32)sc1C(N)=O)c1cc(OC2CCN(C)CC2)ccn1 (stereo not shown) [Example 86, 3-[(1-{4-[(1-Methyl-4-piperidinyl)oxy]-2-pyridinyl}ethyl)oxy]-5-[5-(1-methyl-1H-pyrazol-4-yl)-1H-benzimidazol-1-yl]-2-thiophenecarboxamide]
PLK1 kinase domain
  IC50: < 100 nM
HCT116
  IC50: > 1000 nM
